# Target: human kinase Mps-1 (Homo sapiens (Human), UniProt P33981)
# Experiment: Mps-1 Kinase Assay (TR-FRET)
# Format: biochemical
# Conditions: N-terminally GST-tagged human full length recombinant Mps-1; 10 μM ATP; 1 μM peptide substrate; 60 min at 22° C.; read-out: Mps1 IC50
# Method: The human kinase Mps-1 phosphorylates a biotinylated substrate peptide. Detection of the phosphorylated product is achieved by time-resolved fluorescence resonance energy transfer (TR-FRET) from Europium-labelled anti-phospho-Serine/Threonine antibody as donor to streptavidin labelled with cross-linked allophycocyanin (SA-XLent) as acceptor. Compounds are tested for their inhibition of the kinase activity.
# N-terminally GST-tagged human full length recombinant Mps-1 kinase (purchased from Invitrogen, Karslruhe, Germany, cat. no PV4071) was used. As substrate for the kinase reaction a biotinylated peptide of the amino-acid sequence […] (C-terminus in amide form, purchased from Biosynthan GmbH, Berlin) was used.
# The concentration of Mps-1 in the assay was adjusted to the activity of the enzyme lot and was chosen appropriate to have the assay in the linear range, typical enzyme concentrations were in the range of about 1 nM (final conc. in the 5 μl assay volume).
# The resulting mixture was incubated 1 h at 22° C. to allow the binding of the phosphorylated peptide to the anti-phospho(Ser/Thr)-Europium-antibody. Subsequently the amount of phosphorylated substrate was evaluated by measurement of the resonance energy transfer from the Europium-labelled anti-phospho(Ser/Thr) antibody to the Streptavidin-XLent.
# Sequence of human kinase Mps-1 (P33981 whole entry): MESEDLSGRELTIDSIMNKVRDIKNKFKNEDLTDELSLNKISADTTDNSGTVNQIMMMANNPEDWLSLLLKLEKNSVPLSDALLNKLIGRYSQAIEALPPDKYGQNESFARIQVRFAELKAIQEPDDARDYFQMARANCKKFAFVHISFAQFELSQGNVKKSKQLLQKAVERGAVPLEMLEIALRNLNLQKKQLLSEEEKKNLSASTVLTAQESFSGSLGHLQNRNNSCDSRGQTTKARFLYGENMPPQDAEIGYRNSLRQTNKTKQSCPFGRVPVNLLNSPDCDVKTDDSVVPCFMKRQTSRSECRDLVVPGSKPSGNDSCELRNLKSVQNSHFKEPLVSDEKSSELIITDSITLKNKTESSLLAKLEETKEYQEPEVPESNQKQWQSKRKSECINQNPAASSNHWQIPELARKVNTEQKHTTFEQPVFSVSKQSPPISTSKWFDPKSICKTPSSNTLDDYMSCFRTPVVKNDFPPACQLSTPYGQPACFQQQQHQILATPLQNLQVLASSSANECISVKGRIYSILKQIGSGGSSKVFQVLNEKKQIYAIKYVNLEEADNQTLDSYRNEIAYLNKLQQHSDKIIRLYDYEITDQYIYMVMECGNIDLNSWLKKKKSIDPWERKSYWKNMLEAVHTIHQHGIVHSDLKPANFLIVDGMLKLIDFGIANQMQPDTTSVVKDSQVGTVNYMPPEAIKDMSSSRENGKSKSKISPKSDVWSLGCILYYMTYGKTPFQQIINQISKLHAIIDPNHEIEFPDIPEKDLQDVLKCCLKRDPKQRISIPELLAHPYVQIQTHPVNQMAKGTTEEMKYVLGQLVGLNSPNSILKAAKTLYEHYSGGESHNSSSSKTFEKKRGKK
row,Compound,IC50
1,"O=C(NC1CC1)c1ccc(-c2cnc3c(SCCCCO)nc(-c4ccccc4)cn23)cc1 [Example 35, N-cyclopropyl-4-{8-[(4-hydroxybutyl)sulfanyl]-6-phenylimidazo[1,2-a]pyrazin-3-yl}benzamide]",0.0037 µM
2,"O=C(NC1CC1)c1ccc(-c2cnc3c(S(=O)(=O)CCCCO)nc(-c4ccccc4)cn23)cc1 [Example 36, N-cyclopropyl-4-{8-[(4-hydroxybutyl)sulfonyl]-6-phenylimidazo[1,2-a]pyrazin-3-yl}benzamide]",0.0051 µM
3,"(1R or 1S)-1-(4-{3-[4-(2-cyclopropyl-1H-imidazol-5-yl)phenyl]-8-(methylsulfanyl)imidazo[1,2-a]pyrazin-6-yl}phenyl)ethanol [Example 34B]",0.0582 µM
4,"(1S or 1R)-1-(4-{3-[4-(2-cyclopropyl-1H-imidazol-5-yl)phenyl]-8-(methylsulfanyl)imidazo[1,2-a]pyrazin-6-yl}phenyl)ethanol [Example 34C]",0.095 µM
